The source of these data is PubChem BioAssay (NCI).

Test systems include CAKI-1 renal; U251 CNS; RXF 393 renal; COLO 205 colon; A549 NSCLC; KM12 colon; IGROV1 ovarian; 786-0 renal; SF-268 CNS; MOLT-4 leukemia; OVCAR-8 ovarian.
Assay in all cases: DTP human tumour cell line panel, 48 h

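Five compound concentrations were applied to cells in 96-well plates for 48 hours; endpoints were derived by simple linear interpolation of the resulting dose-response curve. TGI denotes the concentration required for complete inhibition of growth.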 A value given as a limit tells only on which side of the number the result lay.

For `CCOC(=O)N/N=C(/N)c1cccc([N+](=O)[O-])c1`, the TGI in the test on CAKI-1 renal, with U251 CNS, with RXF 393 renal, in the test with COLO 205 colon, in the test with A549 NSCLC and in the test with KM12 colon was greater than 100 µM each time. The concentration for total growth inhibition (TGI) in the test on IGROV1 ovarian, with 786-0 renal, in the test with SF-268 CNS, in the test with MOLT-4 leukemia and in the test with OVCAR-8 ovarian was greater than 100 µM in each case.

`COc1ccc2ccccc2c1/C=C/C(=O)c1ccccc1`: the TGI with CAKI-1 renal turned out to be 15 µM; in the test with U251 CNS it was 4.98 µM; in the test on RXF 393 renal, 3.88 µM; in the test with COLO 205 colon, 9.76 µM; in the test on A549 NSCLC, 10.4 µM; in the test with KM12 colon, 8 µM. For the same molecule, the TGI was 16.2 µM in the test with IGROV1 ovarian; 11.9 µM with 786-0 renal; 17.9 µM in the test on SF-268 CNS; 6.78 µM in the test with MOLT-4 leukemia; 11.2 µM in the test on OVCAR-8 ovarian.

On to `O=C(N/N=C\c1cccc2c([N+](=O)[O-])cccc12)Nc1ccccc1`, for which the TGI in the test with CAKI-1 renal worked out at 25.5 µM; with U251 CNS, 24 µM; with RXF 393 renal, 26.3 µM; with COLO 205 colon, 50.7 µM; in the test with A549 NSCLC, 28.3 µM; in the test on KM12 colon, 36.1 µM. The TGI in the test on IGROV1 ovarian came out at 40.1 µM; in the test on 786-0 renal, 35.1 µM; in the test with SF-268 CNS it was 73 µM; with MOLT-4 leukemia, 41.7 µM; with OVCAR-8 ovarian it was 36.8 µM.

`C(=Nc1ccc(-c2nc3ccccc3[nH]2)cc1)c1cccs1`: the TGI in the test with CAKI-1 renal, in the test with U251 CNS, in the test on RXF 393 renal, in the test with COLO 205 colon, in the test on A549 NSCLC and in the test with KM12 colon was greater than 100 µM in each case. The TGI with IGROV1 ovarian, in the test on 786-0 renal, with SF-268 CNS, with MOLT-4 leukemia and with OVCAR-8 ovarian was greater than 100 µM each time.

Take `CC(C)(C)OC(=O)NC(Cc1ccc(OCc2ccccc2)cn1)C(=O)N1CCCCC1` (stereo not drawn): the TGI in the test on CAKI-1 renal is greater than 100 µM; in the test on U251 CNS, greater than 100 µM; in the test on RXF 393 renal, 65.3 µM; with COLO 205 colon, 33.3 µM; in the test with A549 NSCLC it was greater than 100 µM; in the test with KM12 colon, greater than 100 µM. Besides, the TGI with IGROV1 ovarian was greater than 100 µM; with 786-0 renal, greater than 100 µM; in the test on SF-268 CNS, greater than 100 µM; in the test on MOLT-4 leukemia, 47.7 µM; in the test on OVCAR-8 ovarian it was greater than 100 µM.

Turning to `N=C(N)c1ccc(C(NC(=O)CNS(=O)(=O)c2ccc3ccccc3c2)P(=O)(Oc2ccccc2)Oc2ccccc2)cc1` (stereo not drawn), the TGI in the test with CAKI-1 renal, in the test with U251 CNS, in the test with RXF 393 renal, in the test with COLO 205 colon, in the test on A549 NSCLC and with KM12 colon was greater than 100 µM each time. Also, the TGI in the test with IGROV1 ovarian was greater than 100 µM; in the test on 786-0 renal it was greater than 100 µM; in the test with SF-268 CNS, greater than 100 µM; in the test with MOLT-4 leukemia it was 92.4 µM; with OVCAR-8 ovarian, greater than 100 µM.

For `COC(CNC(=O)C(C)NC(=O)CCc1ccccc1)OC` (stereo not drawn), the TGI in the test on CAKI-1 renal, in the test with U251 CNS, in the test on RXF 393 renal, with COLO 205 colon, with A549 NSCLC and with KM12 colon was greater than 100 µM in each case. The TGI in the test with IGROV1 ovarian, in the test on 786-0 renal, in the test on SF-268 CNS, in the test on MOLT-4 leukemia and in the test on OVCAR-8 ovarian was greater than 100 µM throughout.

In the case of `C[N+](C)(C)CC1CCCCCCCCCCC1=O` (stereo not drawn), the TGI with CAKI-1 renal, in the test with U251 CNS, in the test with RXF 393 renal, in the test with COLO 205 colon, with A549 NSCLC and in the test on KM12 colon was greater than 100 µM in each case. Moreover, the TGI in the test with IGROV1 ovarian, in the test with 786-0 renal, in the test with SF-268 CNS, in the test with MOLT-4 leukemia and in the test on OVCAR-8 ovarian was greater than 100 µM in each case.

As for `NN/C(=N\S(=O)(=O)c1cc2ccccc2s1)Nc1ccc(Cl)cc1`, the TGI in the test with CAKI-1 renal was 39.4 µM; with U251 CNS, 34.5 µM; with RXF 393 renal, 29.6 µM; in the test with COLO 205 colon, 33 µM; in the test with A549 NSCLC, 39.8 µM; in the test on KM12 colon, 48.1 µM. Besides, the TGI was found to be 36.4 µM with IGROV1 ovarian; 35.4 µM in the test on 786-0 renal; 37.9 µM with SF-268 CNS; 68 µM in the test on MOLT-4 leukemia; 47.9 µM in the test on OVCAR-8 ovarian.

`CCOP(C)(=O)C(N)Cc1ccc(OC)c(OC)c1` (stereo not drawn): the TGI with CAKI-1 renal, with U251 CNS, with RXF 393 renal, in the test with COLO 205 colon, in the test on A549 NSCLC and with IGROV1 ovarian was greater than 100 µM each time. Also, the total growth inhibition concentration (TGI) with 786-0 renal, in the test on SF-268 CNS, in the test on MOLT-4 leukemia and with OVCAR-8 ovarian was greater than 100 µM each time.

With `O=C1/C(=N/O)Cc2c(Br)ccc(Br)c21`, the TGI in the test with CAKI-1 renal, in the test with U251 CNS, in the test with RXF 393 renal, in the test with KM12 colon, with IGROV1 ovarian and with 786-0 renal was greater than 100 µM each time. For the same molecule, the TGI with SF-268 CNS was greater than 100 µM; in the test on MOLT-4 leukemia, 82.4 µM; with OVCAR-8 ovarian, greater than 100 µM.

Consider `CCOc1cn(C2CC(O)C(CO)O2)c(=O)[nH]c1=O` (stereo not drawn), for which the TGI with CAKI-1 renal, in the test on U251 CNS, in the test on RXF 393 renal, in the test with COLO 205 colon, in the test with A549 NSCLC and with KM12 colon was greater than 100 µM in each case. In addition, the TGI in the test with IGROV1 ovarian, with 786-0 renal, with SF-268 CNS and in the test on MOLT-4 leukemia was greater than 100 µM throughout.

Take `O=C1CC(=Nc2ccc(Cl)cc2)C(c2ccccc2)N1c1ccccc1` (stereo not drawn): the total growth inhibition concentration (TGI) was 5.71 µM with CAKI-1 renal; greater than 100 µM with U251 CNS; greater than 100 µM in the test with RXF 393 renal; 16.4 µM in the test on COLO 205 colon; greater than 100 µM in the test on A549 NSCLC; greater than 100 µM with KM12 colon. For the same molecule, the TGI in the test with IGROV1 ovarian, in the test with 786-0 renal, in the test with SF-268 CNS and in the test on MOLT-4 leukemia was greater than 100 µM each time.
